From article PMC7365253 (Journal of the American Chemical Society, 2020)

Target: Kelch-like ECH-associated protein 1 (KEAP1) (Homo sapiens, UniProt Q14145)
Format: cell-based

Kelch-like ECH-associated protein 1 (KEAP1), sequence (Q14145 whole entry): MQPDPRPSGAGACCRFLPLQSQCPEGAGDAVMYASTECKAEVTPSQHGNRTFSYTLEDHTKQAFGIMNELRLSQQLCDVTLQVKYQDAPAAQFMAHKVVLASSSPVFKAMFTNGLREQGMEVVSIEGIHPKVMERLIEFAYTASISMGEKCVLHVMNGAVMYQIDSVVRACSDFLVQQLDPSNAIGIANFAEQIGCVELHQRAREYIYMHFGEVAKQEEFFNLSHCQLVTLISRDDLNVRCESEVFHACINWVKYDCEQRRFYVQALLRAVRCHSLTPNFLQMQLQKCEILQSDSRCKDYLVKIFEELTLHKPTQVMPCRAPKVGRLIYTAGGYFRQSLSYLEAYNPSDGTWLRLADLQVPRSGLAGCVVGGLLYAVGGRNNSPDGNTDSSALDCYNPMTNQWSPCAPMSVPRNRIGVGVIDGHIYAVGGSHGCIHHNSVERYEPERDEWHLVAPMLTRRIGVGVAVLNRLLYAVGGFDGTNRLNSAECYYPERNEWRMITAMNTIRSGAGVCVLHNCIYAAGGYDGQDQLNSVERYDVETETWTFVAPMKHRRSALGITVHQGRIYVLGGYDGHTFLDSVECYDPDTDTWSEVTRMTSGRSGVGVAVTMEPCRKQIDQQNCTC

With `Cc1cc(C)c(C#N)c(S(C)(=O)=O)n1` [compound 1, 2-methylsulfony-4,6-diemthyl-nicotinonitrile] the EC50 was 1.1 µM.
